Measurements reported in patent publication US7897619B2, “Heterocyclic modulators of PKB” (Amgen Inc., priority 2007, dated 2011).

These molecules were tested against PKBα (Homo sapiens, UniProt P31749) (assay: PKB kinase assay (P33-labeled ATP, synthetic peptide substrate, filter plate)). Conditions: PKBα enzyme (full length or kinase domain with pleckstrin domain deleted).
Assay type: biochemical
From the text: The kinase assay for evaluating PKB activity comprises active PKB enzymes, a PKB specific substrate, and P^33-labeled ATP. Two forms of PKBα enzymes were used, the full length PKBα and a kinase domain of PKBα with pleckstrin domain (amino acids 1-117) deleted. Both PKB enzymes were obtained from Upstate cell signaling solutions (Cat.# 14-276 and 14-341). The PKB substrate used is a synthetic peptide (ARKRERTYSFGHHA (SEQ ID NO: 1)) as described in Obata et al., J. Biol. Chem. 275 (46), 36108-36115 (2000). The phosphorylated substrate was captured by a phosphocellulose membrane filter plate (MILLIPORE) and measured by a Wallac Microbeta liquid scintillation counter (Perkin Elmer). Table 1 provides the IC50 values obtained for each of the examples with respect to PKBα.

Sequence of PKBα (P31749 118-480 limits assumed): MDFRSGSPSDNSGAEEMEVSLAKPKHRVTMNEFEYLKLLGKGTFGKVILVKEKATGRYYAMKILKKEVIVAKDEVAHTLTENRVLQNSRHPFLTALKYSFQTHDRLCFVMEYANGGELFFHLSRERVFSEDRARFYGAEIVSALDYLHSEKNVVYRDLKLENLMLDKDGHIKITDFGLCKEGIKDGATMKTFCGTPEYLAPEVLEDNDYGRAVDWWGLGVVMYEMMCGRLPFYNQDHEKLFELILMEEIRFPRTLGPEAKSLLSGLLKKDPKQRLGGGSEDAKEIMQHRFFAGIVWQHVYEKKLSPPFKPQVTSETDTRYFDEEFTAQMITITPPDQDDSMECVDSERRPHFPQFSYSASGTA

Row | SMILES | IC50 [nM]
1 | Cc1n[nH]c2ccc(-c3cnc(NCc4ccccc4)o3)cc12 [Example 10, N-Benzyl-5-(3-methyl-1H-indazol-5-yl)oxazol-2-amine] | 1000 to 10000
2 | N[C@H](CNc1nc(-c2ccc3[nH]ncc3c2)ns1)Cc1ccc(C(F)(F)F)cc1 [Example 45, N-((S)-2-Amino-3-(4-(trifluoromethyl)phenyl)propyl)-3-(1H-indazol-5-yl)-1,2,4-thiadiazol-5-amine] | 1000 to 10000
3 | N[C@H](CCn1cc(-c2ccc3cnccc3c2)cn1)Cc1cccc(Cl)c1 [Example 59, (2S)-1-(3-Chlorophenyl)-4-(4-(isoquinolin-6-yl)-1H-pyrazol-1-yl)butan-2-amine] | 50 to 1000
4 | NCCNc1onc(-c2ccc3cnccc3c2)c1Cc1ccccc1 [Example 36, N-(2-Aminoethyl)-4-benzyl-3-(isoquinolin-6-yl)isoxazol-5-amine] | 1000 to 10000
5 | N[C@H](CNc1cnn(-c2ccc3cnccc3c2)c1)Cc1ccc(C(F)(F)F)cc1 [Example 42, N-((S)-2-Amino-3-(4-(trifluoromethyl)phenyl)propyl)-1-(isoquinolin-6-yl)-1H-pyrazol-4-amine] | 50 to 1000
6 | N[C@H](CCn1cc(-c2ccc3[nH]ncc3c2)nn1)Cc1ccc(C(F)(F)F)cc1 [Example 37, (2S)-4-(4-(1H-Indazol-5-yl)-1H-1,2,3-triazol-1-yl)-1-(4-(trifluoromethyl)phenyl)butan-2-amine] | 50 to 1000
7 | N[C@H](CCn1cc(-c2ccc3cnccc3c2)cn1)Cc1ccc(F)c(F)c1 [Example 61, (2S)-1-(3,4-Difluorophenyl)-4-(4-(isoquinolin-6-yl)-1H-pyrazol-1-yl)butan-2-amine] | 50 to 1000
8 | N[C@@H](Cc1ccc(C(F)(F)F)cc1)Cn1cc(-c2ccc3cnccc3c2)cn1 [Example 65, (2S)-1-(4-(Isoquinolin-6-yl)-1H-pyrazol-1-yl)-3-(4-(trifluoromethyl)phenyl)-propan-2-amine] | 50 to 1000
9 | NCCc1c(-c2ccc3cnccc3c2)noc1NC[C@@H](N)Cc1c[nH]c2ccccc12 [Example 35, N-((S)-2-Amino-3-(1H-indol-3-yl)propyl)-4-(2-aminoethyl)-3-(isoquinolin-6-yl)isoxazol-5-amine] | 1000 to 10000
10 | Cn1c(=O)[nH]c2ccc(-c3cnn(CC[C@@H](N)Cc4ccc(Cl)cc4)c3)cc21 [Example 54, 6-(1-((S)-3-Amino-4-(4-chlorophenyl)butyl)-1H-pyrazol-4-yl)-1-methyl-1H-benzo[d]imidazol-2(3H)-one] | 50 to 1000
11 | N[C@H](CCc1nc(-c2ccc3c(c2)CC(=O)N3)no1)Cc1ccc(C(F)(F)F)cc1 [Example 48, 5-(5-((R)-3-Amino-4-(4-(trifluoromethyl)phenyl)butyl)-1,2,4-oxadiazol-3-yl)indolin-2-one] | 50 to 1000
12 | N[C@H](CNc1onc(-c2ccc3cnccc3c2)c1Cc1ccccc1)Cc1ccccc1 [Example 31, N-((S)-2-amino-3-phenylpropyl)-4-benzyl-3-(isoquinolin-6-yl)isoxazol-5-amine] | 1000 to 10000
13 | COc1ccc(CNc2ncc(-c3ccncc3)o2)cc1 [Example 8, N-(4-Methoxybenzyl)-5-(pyridin-4-yl)oxazol-2-amine] | 1000 to 10000
14 | N[C@H](CNc1cc(-c2ccc3cnccc3c2)no1)Cc1c[nH]c2ccccc12 [Example 32, N-((S)-2-amino-3-(1H-indol-3-yl)propyl)-3-(isoquinolin-6-yl)isoxazol-5-amine] | 50 to 1000
15 | N[C@H](CNc1nsc(-c2ccc3c(c2)CC(=O)N3)n1)Cc1ccc(C(F)(F)F)cc1 [Example 47, 5-(3-((S)-2-Amino-3-(4-(trifluoromethyl)phenyl)propylamino)-1,2,4-thiadiazol-5-yl)indolin-2-one] | 50 to 1000
16 | N[C@H](CCc1cc(-c2ccc3cnccc3c2)no1)Cc1cccc(C(F)(F)F)c1 [Example 29, (2R)-4-(3-(Isoquinolin-6-yl)isoxazol-5-yl)-1-(3-(trifluoromethyl)phenyl)butan-2-amine] | 50 to 1000
17 | N[C@@H](Cc1ccc(C(F)(F)F)cc1)c1nc(-c2ccc3cnccc3c2)no1 [Example 5, (1S)-1-(3-(Isoquinolin-6-yl)-1,2,4-oxadiazol-5-yl)-2-(4-(trifluoromethyl)phenyl)ethanamine] | 1000 to 10000
18 | N[C@H](CCc1cc(-c2ccc3cnccc3c2)no1)Cc1cccc(Cl)c1 [Example 26, (2R)-1-(3-chlorophenyl)-4-(3-(isoquinolin-6-yl)isoxazol-5-yl)butan-2-amine] | 50 to 1000
19 | CC(C)Cc1c(-c2ccc3cnccc3c2)noc1NC[C@@H](N)Cc1c[nH]c2ccccc12 [Example 34, N-((S)-2-Amino-3-(1H-indol-3-yl)propyl)-4-isobutyl-3-(isoquinolin-6-yl)isoxazol-5-amine] | 1000 to 10000
20 | N[C@@H](CCc1cc(-c2ccc3cnccc3c2)no1)Cc1ccc(C(F)(F)F)cc1 [Example 28, (2S)-4-(3-(Isoquinolin-6-yl)isoxazol-5-yl)-1-(4-(trifluoromethyl)phenyl)butan-2-amine] | 50 to 1000
21 | N[C@H](CCn1cc(-c2ccc3cnccc3c2)cn1)Cc1ccccc1 [Example 64, (2S)-4-(4-(Isoquinolin-6-yl)-1H-pyrazol-1-yl)-1-phenylbutan-2-amine] | 50 to 1000
22 | N[C@H](CCn1cc(-c2ccc3cnccc3c2)cn1)Cc1ccc(Cl)c(Cl)c1 [Example 60, (2S)-1-(3,4-Dichlorophenyl)-4-(4-(isoquinolin-6-yl)-1H-pyrazol-1-yl)butan-2-amine] | 50 to 1000
23 | N[C@H](CCc1cn(-c2ccc3[nH]ncc3c2)nn1)Cc1ccc(C(F)(F)F)nc1 [Example 67, (2R)-4-(1-(1H-Indazol-5-yl)-1H-1,2,3-triazol-4-yl)-1-(6-(trifluoromethyl)pyridin-3-yl)butan-2-amine bistrifluoroacetate] | 50 to 1000
24 | N[C@H](CCc1nc(-c2ccc3cnccc3c2)no1)Cc1ccc(C(F)(F)F)cc1 [Example 3, (2R)-4-(3-(Isoquinolin-6-yl)-1,2,4-oxadiazol-5-yl)-1-(4-(trifluoromethyl)phenyl)butan-2-amine] | 1000 to 10000
25 | N[C@H](CCn1cc(-c2ccc3[nH]ncc3c2)nn1)Cc1ccccc1 [Example 39, (2S)-4-(4-(1H-Indazol-5-yl)-1H-1,2,3-triazol-1-yl)-1-phenylbutan-2-amine] | 50 to 1000
26 | Cc1c(-c2ccc3cnccc3c2)noc1NC[C@@H](N)Cc1ccccc1 [Example 17, N-((S)-2-Amino-3-phenylpropyl)-3-(isoquinolin-6-yl)-4-methylisoxazol-5-amine] | 1000 to 10000
27 | N[C@H](CNc1nc(-c2ccc3cnccc3c2)ns1)Cc1ccc(C(F)(F)F)cc1 [Example 43, N-((S)-2-Amino-3-(4-(trifluoromethyl)phenyl)propyl)-3-(isoquinolin-6-yl)-1,2,4-thiadiazol-5-amine] | 50 to 1000

Second part, the molecule after the results:

Row | IC50 [nM] | SMILES
28 | 50 to 1000 | N[C@H](CNc1nnc(-c2ccc3cnccc3c2)o1)Cc1ccc(C(F)(F)F)cc1 [Example 1, N-((S)-2-amino-3-(4-(trifluoromethyl)phenyl)propyl)-5-(isoquinolin-6-yl)-1,3,4-oxadiazol-2-amine]
29 | 50 to 1000 | Cc1ccc(C[C@H](N)CCn2cc(-c3ccc4cnccc4c3)cn2)cc1 [Example 58, (2S)-4-(4-(Isoquinolin-6-yl)-1H-pyrazol-1-yl)-1-p-tolylbutan-2-amine]
30 | 50 to 1000 | N[C@H](CNc1onc(-c2ccc3cnccc3c2)c1Cc1ccccc1)Cc1c[nH]c2ccccc12 [Example 33, N-((S)-2-Amino-3-(1H-indol-3-yl)propyl)-4-benzyl-3-(isoquinolin-6-yl)isoxazol-5-amine]
31 | 50 to 1000 | N[C@H](CNc1cc(-c2ccc3cnccc3c2)on1)Cc1cccc(Cl)c1 [Example 21, N-((S)-2-Amino-3-(3-chlorophenyl)propyl)-5-(isoquinolin-6-yl)isoxazol-3-amine]
32 | 50 to 1000 | N[C@H](CNc1cc(-c2ccc3cnccc3c2)no1)Cc1ccc2ccccc2c1 [Example 19, N-((S)-2-Amino-3-(naphthalen-2-yl)propyl)-3-(isoquinolin-6-yl)isoxazol-5-amine]
33 | < 50 | N[C@H](CCn1cc(-c2ccc3[nH]c(=O)oc3c2)cn1)Cc1ccc(Cl)cc1 [Example 50, 6-(1-((S)-3-Amino-4-(4-chlorophenyl)butyl)-1H-pyrazol-4-yl)benzo[d]oxazol-2(3H)-one]
34 | < 50 | N[C@H](CNc1cc(-c2ccc3cnccc3c2)no1)Cc1ccc(C(F)(F)F)cc1 [Example 14, N-((S)-2-Amino-3-(4-(trifluoromethyl)phenyl)propyl)-3-(isoquinolin-6-yl)isoxazol-5-amine]
35 | < 50 | N[C@H](CNc1cc(-c2ccc3cnccc3c2)no1)Cc1cccc(Cl)c1 [Example 16, N-((S)-2-Amino-3-(3-chlorophenyl)propyl)-3-(isoquinolin-6-yl)isoxazol-5-amine]
36 | < 50 | N[C@H](CNc1cc(-c2ccc3cnccc3c2)no1)Cc1ccc(Br)cc1 [Example 12, N-((S)-2-Amino-3-(4-bromophenyl)propyl)-3-(isoquinolin-6-yl)isoxazol-5-amine]
37 | < 50 | N[C@H](CCn1cc(-c2ccc3cnccc3c2)cn1)Cc1ccc(C(F)(F)F)cc1 [Example 57, (2S)-4-(4-(Isoquinolin-6-yl)-1H-pyrazol-1-yl)-1-(4-(trifluoromethyl)phenyl)butan-2-amine]
38 | < 50 | N[C@H](CCn1cc(-c2ccc3c(c2)CC(=O)N3)cn1)Cc1ccc(Cl)cc1 [Example 51, 5-(1-((S)-3-Amino-4-(4-chlorophenyl)butyl)-1H-pyrazol-4-yl)indolin-2-one]
39 | < 50 | Cc1n[nH]c2ccc(-c3cnn(CC[C@@H](N)Cc4ccc(Cl)cc4)c3)cc12 [Example 53, (2S)-1-(4-Chlorophenyl)-4-(4-(3-methyl-1H-indazol-5-yl)-1H-pyrazol-1-yl)butan-2-amine]
